From patent US20210070748A1, “INHIBITORS OF BRUTONS TYROSINE KINASE” (Pharmacyclics LLC, priority 2015, published 2021)
Read-outs that look alike come from different tables or passages of the source.

Columns and labels:
Type in all cases: biochemical
[1] = target: T1, BTK-WT (Homo sapiens, UniProt Q06187); assay: Btk in vitro inhibitory activity (one of Method A TR-FRET, Method B electrophoretic mobility shift, Method C radiometric filter binding); conditions: read-out: IC50 BTK-WT
T1 construct: purified from insect cells as a full-length construct containing an N-terminal 6X-His tag; His6 (N); made in house; host or cells: insect cells (baculovirus Sf21 in Method B)

[2] = target: LCK (Homo sapiens, UniProt P06239); assay: Inhibition of a panel of kinases, in vitro HotSpot kinase assay: LCK; conditions: read-out: IC50 LCK
[3] = target: T2, ITK (Homo sapiens, UniProt Q08881); assay: Inhibition of a panel of kinases, in vitro HotSpot kinase assay: ITK
T2 sequence (Q08881 1-620): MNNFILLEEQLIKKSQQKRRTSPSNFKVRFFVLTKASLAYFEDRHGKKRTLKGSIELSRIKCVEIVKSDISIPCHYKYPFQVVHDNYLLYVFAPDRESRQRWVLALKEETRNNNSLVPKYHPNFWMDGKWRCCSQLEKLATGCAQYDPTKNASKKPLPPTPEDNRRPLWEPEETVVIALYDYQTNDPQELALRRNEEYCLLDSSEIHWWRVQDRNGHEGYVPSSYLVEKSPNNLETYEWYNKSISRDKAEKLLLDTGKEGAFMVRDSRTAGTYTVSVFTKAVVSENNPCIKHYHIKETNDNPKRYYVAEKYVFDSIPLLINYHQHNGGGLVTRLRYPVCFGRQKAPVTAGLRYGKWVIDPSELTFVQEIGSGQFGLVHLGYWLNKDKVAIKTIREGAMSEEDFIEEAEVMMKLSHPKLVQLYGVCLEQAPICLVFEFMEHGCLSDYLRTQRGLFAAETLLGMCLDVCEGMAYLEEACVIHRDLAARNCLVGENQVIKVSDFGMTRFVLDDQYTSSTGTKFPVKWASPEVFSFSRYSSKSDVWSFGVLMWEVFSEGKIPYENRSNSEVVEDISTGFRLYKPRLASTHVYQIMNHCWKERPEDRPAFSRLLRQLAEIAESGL
Description: (§1) The degree of inhibition of a panel of kinases is determined using the in vitro HotSpot kinase assay (purified enzymes, ^33P-ATP, an appropriate substrate and 1 μM ATP).

[4] = target: EGFR (Homo sapiens, UniProt P00533); assay: Inhibition of a panel of kinases, in vitro HotSpot kinase assay: EGFR
Description: as §1

[5] = target: T3, TEC (Homo sapiens, UniProt P42680); assay: Inhibition of a panel of kinases, in vitro HotSpot kinase assay: TEC
T3 sequence (P42680 1-631): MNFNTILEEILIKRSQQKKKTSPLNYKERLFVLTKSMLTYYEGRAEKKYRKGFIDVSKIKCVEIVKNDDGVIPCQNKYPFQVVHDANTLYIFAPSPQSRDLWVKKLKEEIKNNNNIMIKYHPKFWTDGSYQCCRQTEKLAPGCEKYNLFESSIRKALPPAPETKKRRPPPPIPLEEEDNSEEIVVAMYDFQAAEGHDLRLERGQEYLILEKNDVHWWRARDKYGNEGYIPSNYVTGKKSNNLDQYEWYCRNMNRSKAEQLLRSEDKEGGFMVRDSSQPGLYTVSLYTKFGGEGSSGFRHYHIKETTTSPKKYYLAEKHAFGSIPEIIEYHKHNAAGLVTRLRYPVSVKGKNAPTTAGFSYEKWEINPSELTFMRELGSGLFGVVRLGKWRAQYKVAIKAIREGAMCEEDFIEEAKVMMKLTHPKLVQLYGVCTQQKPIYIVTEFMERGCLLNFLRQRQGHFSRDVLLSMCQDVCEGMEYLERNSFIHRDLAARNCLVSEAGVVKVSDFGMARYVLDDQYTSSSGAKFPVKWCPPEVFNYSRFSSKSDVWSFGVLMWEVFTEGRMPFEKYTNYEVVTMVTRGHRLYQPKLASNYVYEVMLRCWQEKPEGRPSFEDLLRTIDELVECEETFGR
Description: as §1

[6] = D-compounds panel data, 1 μM ATP

LCK, sequence (P06239 whole entry): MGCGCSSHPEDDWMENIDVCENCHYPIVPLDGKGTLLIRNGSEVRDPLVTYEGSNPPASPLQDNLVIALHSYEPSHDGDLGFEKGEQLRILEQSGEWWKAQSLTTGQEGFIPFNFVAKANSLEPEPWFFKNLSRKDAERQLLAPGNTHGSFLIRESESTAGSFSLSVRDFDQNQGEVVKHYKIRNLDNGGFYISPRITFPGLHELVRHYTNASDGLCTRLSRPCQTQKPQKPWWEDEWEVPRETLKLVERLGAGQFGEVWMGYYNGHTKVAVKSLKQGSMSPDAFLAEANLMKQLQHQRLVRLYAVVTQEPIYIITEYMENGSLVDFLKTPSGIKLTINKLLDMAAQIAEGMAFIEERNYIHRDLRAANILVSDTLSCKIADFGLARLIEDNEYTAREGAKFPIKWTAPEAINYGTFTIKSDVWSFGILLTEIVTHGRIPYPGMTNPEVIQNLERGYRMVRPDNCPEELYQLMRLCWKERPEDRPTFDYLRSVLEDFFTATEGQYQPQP
T1 sequence (Q06187 whole entry): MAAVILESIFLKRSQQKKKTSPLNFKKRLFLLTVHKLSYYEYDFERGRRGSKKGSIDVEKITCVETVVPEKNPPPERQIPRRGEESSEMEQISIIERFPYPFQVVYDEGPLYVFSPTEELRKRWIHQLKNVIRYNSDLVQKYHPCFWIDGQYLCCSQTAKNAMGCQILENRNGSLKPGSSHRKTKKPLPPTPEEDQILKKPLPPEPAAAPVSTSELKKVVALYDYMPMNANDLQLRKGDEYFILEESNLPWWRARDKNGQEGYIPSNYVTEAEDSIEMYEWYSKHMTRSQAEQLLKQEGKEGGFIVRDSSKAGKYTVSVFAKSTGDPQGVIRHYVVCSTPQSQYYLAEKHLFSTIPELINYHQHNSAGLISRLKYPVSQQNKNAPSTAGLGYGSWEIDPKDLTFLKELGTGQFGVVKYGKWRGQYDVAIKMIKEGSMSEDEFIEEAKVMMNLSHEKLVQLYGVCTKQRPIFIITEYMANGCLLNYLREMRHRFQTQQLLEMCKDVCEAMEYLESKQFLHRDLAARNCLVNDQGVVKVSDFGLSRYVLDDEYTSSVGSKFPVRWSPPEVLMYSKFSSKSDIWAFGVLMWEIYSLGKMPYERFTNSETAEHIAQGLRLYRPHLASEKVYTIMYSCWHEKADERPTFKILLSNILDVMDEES
EGFR, sequence (P00533 25-1210): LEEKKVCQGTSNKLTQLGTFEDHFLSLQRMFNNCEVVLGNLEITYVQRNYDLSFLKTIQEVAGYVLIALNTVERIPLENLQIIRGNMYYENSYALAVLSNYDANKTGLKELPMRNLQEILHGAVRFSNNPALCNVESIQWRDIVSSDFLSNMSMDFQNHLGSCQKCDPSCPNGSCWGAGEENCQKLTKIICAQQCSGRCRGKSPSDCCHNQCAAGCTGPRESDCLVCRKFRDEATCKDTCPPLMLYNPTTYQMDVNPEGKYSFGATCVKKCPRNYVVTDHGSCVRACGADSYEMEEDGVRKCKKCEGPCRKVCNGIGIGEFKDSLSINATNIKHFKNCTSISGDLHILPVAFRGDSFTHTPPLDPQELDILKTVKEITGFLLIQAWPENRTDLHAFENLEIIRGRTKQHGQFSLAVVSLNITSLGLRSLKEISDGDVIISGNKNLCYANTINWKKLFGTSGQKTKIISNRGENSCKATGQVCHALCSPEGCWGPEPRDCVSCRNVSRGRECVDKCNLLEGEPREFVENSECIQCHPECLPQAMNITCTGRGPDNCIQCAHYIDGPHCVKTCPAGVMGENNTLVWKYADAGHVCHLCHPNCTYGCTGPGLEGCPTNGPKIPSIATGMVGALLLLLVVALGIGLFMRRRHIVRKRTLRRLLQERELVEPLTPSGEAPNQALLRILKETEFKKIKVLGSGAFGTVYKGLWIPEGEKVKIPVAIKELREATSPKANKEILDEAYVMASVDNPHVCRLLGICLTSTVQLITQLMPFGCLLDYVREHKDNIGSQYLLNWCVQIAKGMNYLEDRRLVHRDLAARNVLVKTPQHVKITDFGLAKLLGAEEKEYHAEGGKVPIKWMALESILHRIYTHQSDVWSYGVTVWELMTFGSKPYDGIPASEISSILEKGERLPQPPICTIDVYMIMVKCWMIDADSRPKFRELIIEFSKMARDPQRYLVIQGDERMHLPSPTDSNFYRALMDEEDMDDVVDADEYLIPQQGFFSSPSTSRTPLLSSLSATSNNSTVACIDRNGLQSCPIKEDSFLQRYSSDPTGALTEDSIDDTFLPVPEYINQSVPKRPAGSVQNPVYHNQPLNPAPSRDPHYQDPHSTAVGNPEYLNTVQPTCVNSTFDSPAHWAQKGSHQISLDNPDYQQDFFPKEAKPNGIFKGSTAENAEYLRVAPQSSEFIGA

| SMILES | IC50 ([1]; D-compounds panel data) [nM] | IC50 [2, 6] [nM] | IC50 [3, 6] [nM] | IC50 [4, 6] [nM] | IC50 [5, 6] [nM] | IC50 ([1]; E compounds, Table 17) [nM] | IC50 ([2]; E compounds, Table 17) [nM] | IC50 ([3]; E compounds, Table 17) [nM] | IC50 ([4]; E compounds, Table 17) [nM] | IC50 ([5]; E compounds, Table 17) [nM] |
| --- | --- | --- | --- | --- | --- | --- | --- | --- | --- | --- |
| C[C@@H]1[C@H](N2CCN(C)C2=O)CCCN1c1cnc(C(N)=O)c(Nc2cnn(C)c2)n1 [Example D-93, 3-[(1-methyl-1H-pyrazol-4-yl)amino]-5-[(2R,3R)-2-methyl-3-(3-methyl-2-oxoimidazolidin-1-yl)piperidin-1-yl]pyrazine-2-carboxamide] | 10 to 100 | 100 to 1000 | 100 to 1000 | 1000 to 10000 | 10 to 100 |  |  |  |  |  |
| C[C@@H]1[C@H](NC(=O)c2ccc(C3CC3)cc2)CCCN1c1cnc(C(N)=O)c(Nc2cnc(N3CCN(C)CC3)nc2)n1 [Example D-318, 5-[(2R,3R)-3-(4-cyclopropylbenzamido)-2-methylpiperidin-1-yl]-3-{[2-(4-methylpiperazin-1-yl)pyrimidin-5-yl]amino}pyrazine-2-carboxamide] | ≤ 10 | 100 to 1000 | 100 to 1000 | > 10000 | 10 to 100 |  |  |  |  |  |
| C[C@@H]1[C@H](NC(=O)c2ccc(C3CC3)cc2)CCCN1c1cnc(C(N)=O)c(Nc2cnn(CC3CCOCC3)c2)n1 [Example D-319, 5-[(2R,3R)-3-(4-cyclopropylbenzamido)-2-methylpiperidin-1-yl]-3-{[1-(oxan-4-ylmethyl)-1H-pyrazol-4-yl]amino}pyrazine-2-carboxamide] | ≤ 10 | 100 to 1000 | 100 to 1000 | 1000 to 10000 | ≤ 10 |  |  |  |  |  |
| C[C@@H]1[C@H](NC(=O)c2ccc(C3CC3)cc2)CCCN1c1cnc(C(N)=O)c(Nc2ccc(N3CCC(C(=O)N(C)C)CC3)cc2)n1 [Example D-320, 5-[(2R,3R)-3-(4-cyclopropylbenzamido)-2-methylpiperidin-1-yl]-3-({4-[4-(dimethylcarbamoyl)piperidin-1-yl]phenyl}amino)pyrazine-2-carboxamide] | ≤ 10 | 10 to 100 | 10 to 100 | 100 to 1000 | ≤ 10 |  |  |  |  |  |
| C[C@@H]1[C@H](NC(=O)c2ccc(C3CC3)cc2)CCCN1c1cnc(C(N)=O)c(Nc2cnn(CC3CCC(F)(F)CC3)c2)n1 [Example D-321, 5-[(2R,3R)-3-(4-cyclopropylbenzamido)-2-methylpiperidin-1-yl]-3-({1-[(4,4-difluorocyclohexyl)methyl]-1H-pyrazol-4-yl}amino)pyrazine-2-carboxamide] | 10 to 100 | 1000 to 10000 | 100 to 1000 | > 10000 | 10 to 100 |  |  |  |  |  |
| C=CC(=O)N1CC[C@@H](N(C)c2cnc(C(N)=O)c(Nc3ccc(C4(C)CCN(C5CC5)CC4)cc3)n2)C1 [Example E-104, (R)-5-((1-acryloylpyrrolidin-3-yl)(methyl)amino)-3-(4-(1-cyclopropyl-4-methylpiperidin-4-yl)phenylammo)pyrazine-2-carboxamide] |  |  |  |  |  | ≤ 10 | 10 to 100 | ≤ 10 | ≤ 10 | ≤ 10 |
| C=CC(=O)N1CC[C@@H](N(C)c2cnc(C(N)=O)c(Nc3ccc(C4(C)CCN(C5CCCC5)CC4)cc3)n2)C1 [Example E-106, (R)-5-((1-acryloylpyrrolidin-3-yl)(methyl)amino)-3-(4-(1-cyclopentyl-4-methylpiperidin-4-yl)phenylamino)pyrazine-2-carboxamide] |  |  |  |  |  | ≤ 10 | 10 to 100 | ≤ 10 | ≤ 10 | ≤ 10 |
| C=CC(=O)N1CCC[C@@H](Nc2cnc(C(N)=O)c(Nc3ccc(C4CCN(C5CCCC5)CC4)cc3)n2)C1 [Example E-108, (R)-5-(1-acryloylpiperidin-3-ylamino)-3-(4-(1-cyclopentylpiperidin-4-yl)phenylamino)pyrazine-2-carboxamide] |  |  |  |  |  | ≤ 10 | 10 to 100 | ≤ 10 | ≤ 10 | ≤ 10 |

Now from value to molecule, other results behind:

| IC50 ([1]; D-compounds panel data) [nM] | IC50 [2, 6] [nM] | IC50 [3, 6] [nM] | IC50 [4, 6] [nM] | IC50 [5, 6] [nM] | SMILES | IC50 ([1]; E compounds, Table 17) [nM] | IC50 ([2]; E compounds, Table 17) [nM] | IC50 ([3]; E compounds, Table 17) [nM] | IC50 ([4]; E compounds, Table 17) [nM] | IC50 ([5]; E compounds, Table 17) [nM] |
| --- | --- | --- | --- | --- | --- | --- | --- | --- | --- | --- |
| ≤ 10 | 10 to 100 | 100 to 1000 | 100 to 1000 | 10 to 100 | C[C@@H]1[C@H](NC(=O)c2ccc(C(F)(F)F)nc2)CCCN1c1cnc(C(N)=O)c(Nc2cnn(C)c2)n1 [Example D-91, 3-[(1-methyl-1H-pyrazol-4-yl)amino]-5-[(2R,3R)-2-methyl-3-[6-(trifluoromethyl)pyridine-3-amido]piperidin-1-yl]pyrazine-2-carboxamide] |  |  |  |  |  |
| ≤ 10 | 100 to 1000 | 1000 to 10000 | 1000 to 10000 | 10 to 100 | C[C@@H]1[C@H](NC(=O)c2ccc(C3CC3)cc2)CCCN1c1cnc(C(N)=O)c(Nc2ccc(N3CCN(C)CC3)c(C(F)(F)F)c2)n1 [Example D-92, 5-[(2R,3R)-3-(4-cyclopropylbenzamido)-2-methylpiperidin-1-yl]-3-{[4-(4-methylpiperazin-1-yl)-3-(trifluoromethyl)phenyl]amino}pyrazine-2-carboxamide] |  |  |  |  |  |
| ≤ 10 | 100 to 1000 | 100 to 1000 | 1000 to 10000 | 10 to 100 | C[C@@H]1[C@H](NC(=O)c2ccc(C(C)(C)CO)cc2)CCCN1c1cnc(C(N)=O)c(Nc2cnn(C)c2)n1 [Example D-94, 5-[(2R,3R)-3-[4-(1-hydroxy-2-methylpropan-2-yl)benzamido]-2-methylpiperidin-1-yl]-3-[(1-methyl-1H-pyrazol-4-yl)amino]pyrazine-2-carboxamide] |  |  |  |  |  |
| ≤ 10 | 10 to 100 | 100 to 1000 | 100 to 1000 | 10 to 100 | C[C@@H]1[C@H](NC(=O)c2ccc(C3CC3)cc2)CCCN1c1cnc(C(N)=O)c(Nc2ccc(CN3CCOCC3)cc2)n1 [Example D-316, 5-[(2R,3R)-3-(4-cyclopropylbenzamido)-2-methylpiperidin-1-yl]-3-{[4-(morpholin-4-ylmethyl)phenyl]amino}pyrazine-2-carboxamide] |  |  |  |  |  |
| ≤ 10 | > 10000 | > 10000 | > 10000 | 10 to 100 | C[C@@H]1[C@H](NC(=O)c2ccc(C3CC3)cc2)CCCN1c1cnc(C(N)=O)c(Nc2ccc(C3CCOCC3)cc2)n1 [Example D-317, 5-[(2R,3R)-3-(4-cyclopropylbenzamido)-2-methylpiperidin-1-yl]-3-{[4-(oxan-4-yl)phenyl]amino}pyrazine-2-carboxamide] |  |  |  |  |  |
